# Data as given in PubChem BioAssay (NCI).
#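 Tested at 5 concentrations; 48 h exposure; 96-well plates; endpoints linearly interpolated, else capped at highest concentration. GI50 = concentration required for 50% inhibition of growth. TGI marks complete inhibition of growth.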
# Key:
# Experiment in all cases: NCI-60 cell line screen, 48 h
# [1] = system: A498 renal
# [2] = system: A549 NSCLC
# [3] = system: BT-549 breast
# [4] = system: CAKI-1 renal
# [5] = system: COLO 205 colon
# [6] = system: EKVX NSCLC
# [7] = system: HCT-116 colon
# [8] = system: HOP-62 NSCLC
# [9] = system: HOP-92 NSCLC
# [10] = system: HS 578T breast
# [11] = system: KM12 colon
# [12] = system: LOX IMVI melanoma
# [13] = system: M14 melanoma
# [14] = system: MOLT-4 leukemia
# [15] = system: NCI-H226 lung
# [16] = system: NCI-H460 lung
# [17] = system: NCI-H522 lung
# [18] = system: OVCAR-8 ovarian
# [19] = system: PC-3 prostate
# [20] = system: RPMI-8226 leukemia
# [21] = system: RXF 393 renal
# [22] = system: SF-268 CNS
# [23] = system: SF-295 CNS
# [24] = system: SF-539 CNS
# [25] = system: SK-MEL-28 melanoma
# [26] = system: SK-MEL-5 melanoma
# [27] = system: SK-OV-3 ovarian
# [28] = system: SN12C renal
# [29] = system: SNB-19 CNS
# [30] = system: SNB-75 CNS
# [31] = system: SW-620 colon
# [32] = system: U251 CNS
# [33] = system: UACC-257 melanoma
# [34] = system: UACC-62 melanoma
# [35] = system: HCC-2998 colon
# [36] = system: HT29 colon
# [37] = system: OVCAR-5 ovarian
# [38] = system: 786-0 renal
# [39] = system: ACHN renal
# [40] = system: DU-145 prostate
# [41] = system: HCT-15 colon
# [42] = system: HL-60(TB) leukemia
# [43] = system: IGROV1 ovarian
# [44] = system: K-562 leukemia
# [45] = system: MALME-3M melanoma
# [46] = system: MCF7 breast
# [47] = system: MDA-MB-231 breast
# [48] = system: MDA-MB-435
# [49] = system: NCI-H23 lung
# [50] = system: NCI/ADR-RES ovarian
# [51] = system: OVCAR-3 ovarian
# [52] = system: OVCAR-4 ovarian
# [53] = system: SK-MEL-2 melanoma
# [54] = system: SR leukemia
# [55] = system: T-47D breast
# [56] = system: TK-10 renal
# [57] = system: UO-31 renal
compound,measurement,setting,value
C=C1C(=O)O[C@H]2[C@H]1CC/C(COC(=O)/C=C/C(=O)OC/C1=C/CC[C@@]3(C)O[C@H]3[C@H]3OC(=O)C(=C)[C@@H]3CC1)=C\CC[C@@]1(C)O[C@@H]21,GI50,[1],> 100 µM
same,TGI,[1],> 100 µM
same,GI50,[2],> 100 µM
same,TGI,[2],> 100 µM
same,GI50,[3],1.58 µM
same,TGI,[3],4.41 µM
same,GI50,[4],1.08 µM
same,TGI,[4],3.43 µM
same,GI50,[5],0.351 µM
same,TGI,[5],1.24 µM
same,GI50,[6],2.22 µM
same,TGI,[6],> 100 µM
same,GI50,[7],0.253 µM
same,TGI,[7],0.756 µM
same,GI50,[8],5.43 µM
same,TGI,[8],> 100 µM
same,GI50,[9],0.549 µM
same,TGI,[9],1.8 µM
same,GI50,[10],3.22 µM
same,TGI,[10],> 100 µM
same,GI50,[11],5.19 µM
same,TGI,[11],> 100 µM
same,GI50,[12],1.07 µM
same,TGI,[12],2.4 µM
same,GI50,[13],1.26 µM
same,TGI,[13],3.89 µM
same,GI50,[14],0.307 µM
same,TGI,[14],1.4 µM
same,GI50,[15],1.42 µM
same,TGI,[15],3.11 µM
same,GI50,[16],5.2 µM
same,TGI,[16],> 100 µM
same,GI50,[17],0.171 µM
same,TGI,[17],0.374 µM
same,GI50,[18],1.53 µM
same,TGI,[18],3.05 µM
same,GI50,[19],3.02 µM
same,TGI,[19],> 100 µM
same,GI50,[20],0.868 µM
same,TGI,[20],4 µM
same,GI50,[21],0.297 µM
same,TGI,[21],0.713 µM
same,GI50,[22],3.19 µM
same,TGI,[22],> 100 µM
same,GI50,[23],6.77 µM
same,TGI,[23],> 100 µM
same,GI50,[24],2.5 µM
same,TGI,[24],7.86 µM
same,GI50,[25],1.56 µM
same,TGI,[25],4.13 µM
same,GI50,[26],4.34 µM
same,TGI,[26],> 100 µM
same,GI50,[27],> 100 µM
same,TGI,[27],> 100 µM
same,GI50,[28],1.49 µM
same,TGI,[28],4.04 µM
same,GI50,[29],5.49 µM
same,TGI,[29],> 100 µM
same,GI50,[30],3.47 µM
same,TGI,[30],66.9 µM
same,GI50,[31],0.338 µM
same,TGI,[31],1.11 µM
same,GI50,[32],2.82 µM
same,TGI,[32],10.8 µM
same,GI50,[33],1.64 µM
same,TGI,[33],3.14 µM
same,GI50,[34],1.21 µM
same,TGI,[34],2.68 µM
c1ccc2c(c1)ccc1c3ccccc3c(NCCCCN3CCCCC3)cc21,GI50,[2],3.1 µM
same,TGI,[2],> 100 µM
same,GI50,[35],1.75 µM
same,TGI,[35],3.36 µM
same,GI50,[36],3.5 µM
same,TGI,[36],> 100 µM
same,GI50,[11],1.75 µM
same,TGI,[11],3.25 µM
same,GI50,[37],1.69 µM
same,TGI,[37],3.2 µM
O=[N+]([O-])c1cccc([N+](=O)[O-])c1Cl,TGI,[38],> 100 µM
same,TGI,[1],38.8 µM
same,TGI,[2],30 µM
same,TGI,[39],31.4 µM
same,TGI,[4],7.68 µM
same,TGI,[5],91.2 µM
same,TGI,[40],11.4 µM
same,TGI,[6],46.4 µM
same,TGI,[7],> 100 µM
same,TGI,[41],31.6 µM
same,TGI,[42],24.2 µM
same,TGI,[8],> 100 µM
same,TGI,[9],45.3 µM
same,TGI,[10],82.3 µM
same,TGI,[36],45.1 µM
same,TGI,[43],30.6 µM
same,TGI,[44],> 100 µM
same,TGI,[11],29.5 µM
same,TGI,[12],6.88 µM
same,TGI,[13],> 100 µM
same,TGI,[45],34.7 µM
same,TGI,[46],> 100 µM
same,TGI,[47],51.7 µM
same,TGI,[48],35.3 µM
same,TGI,[14],> 100 µM
same,TGI,[15],68.4 µM
same,TGI,[49],40.5 µM
same,TGI,[16],> 100 µM
same,TGI,[17],29.5 µM
same,TGI,[50],57.4 µM
same,TGI,[51],4.84 µM
same,TGI,[52],45.6 µM
same,TGI,[37],43.1 µM
same,TGI,[18],31.5 µM
same,TGI,[19],38.7 µM
same,TGI,[20],> 100 µM
same,TGI,[21],38.3 µM
same,TGI,[22],46.5 µM
same,TGI,[23],34.8 µM
same,TGI,[24],35 µM
same,TGI,[53],43.9 µM
same,TGI,[25],42 µM
same,TGI,[26],32.7 µM
same,TGI,[28],79.9 µM
same,TGI,[29],33.2 µM
same,TGI,[30],67.5 µM
same,TGI,[54],> 100 µM
same,TGI,[31],> 100 µM
same,TGI,[55],14.7 µM
same,TGI,[56],41.3 µM
same,TGI,[32],25.8 µM
same,TGI,[33],23.6 µM
same,TGI,[34],42.9 µM
same,TGI,[57],2.86 µM
